# Measured values from patent publication US20100297673A1, “METHODS AND COMPOSITIONS FOR UPREGULATION OF PEROXIREDOXIN ACTIVITY” (Reddy US Therapeutics, priority 2006, published 2010).
# What was measured:
# HepG2 cells [1] = experiment: Dil-LDL uptake assay in HepG2 cells; type: cell-based, human
# Procedure: Glass cover slips were autoclaved and aseptically transferred to 6-well tissue culture plates in a tissue culture hood. HepG2 cells were prepared from the T-75 flasks and were used to seed the 6-well plates (containing sterile cover slips) with 7.5×10^5 cells per well per 1 ml of growth media. The following day, the media was removed and the wells were washed 3 times with 2 mL DMEM+10% DLCS very gently. After washes, 2 ml of DMEM+10% (DLCS) was added to the wells and treatments continued for 24 hours. In selected experiments, cells were treated with 100 uM H2O2, control IgG or perlecan antibodies. The next day, the media was not changed and Dil LDL and DAPI were added to wells for uptake (5 hours). After the uptake was completed, the wells were washed gently 3 times with PBS (2 mL/well/wash) and after last wash, cells were fixed with 1 mL of 4% formaldehyde in PBS for 20 minutes. Wells were washed 5 times with water in excess. Cover slips were then mounted to slides using clearmount. Slides were stored at −20° C. The slides were imaged using the Nikon microscope and ColdSNAP-Pro camera. […] Images were quantitated using Image Pro-Plus software. The intensity per area of the fluorescent label was quantitated using the software and was used to generate the figure which is LDL uptake per area as a percent of the control.
# HepG2 cells [2] = experiment: Real time-PCR gene expression in HepG2 cells; type: cell-based, human
# Procedure: HepG2 cells were prepared from the T-75 flasks and were used to seed the 24-well plates with 1.6×10^5 cells per well per 1 ml of growth media. The next day, the media was removed and 1 ml of low-serum growth media was added to each well for 24 hours. The following day, the low-serum media was removed. In selected experiments, cells were treated with 100 uM H2O2 or si-Peroxiredoxin I. Media was removed and cells were lysed with the lysis buffer from the Ambion RNAqueous kit and plate was placed on ice. RNA was extracted using the kit according to the protocol. The RNA was quantitated using a spectrophotometer and frozen at −80° C. The next day, the RNA was used for real-time PCR. The RNA was thawed and master mixes for each primer were prepared with the Stratagene Full Velocity SYBR Green QRT-PCR Master Mix. Master Mix with primer was added to the appropriate wells then RNA was added to appropriate wells. […]
# HepG2 cells were grown in T-75 flasks prior to study. […] Total cholesterol and apoB levels were measured using an enzymatic assay. Percentage change was evaluated by comparing to both the baseline and the vehicle at the end of the study. […] RNA was isolated according to the manufacturer's protocol (Qiagen) and analyzed for changes in gene expression normalized to actin using RT-PCR. […]
# Stat1 = Stat1 activity assay (Stat1-luciferase reporter); type: cell-based, human; conditions: HepG2 transfected with Stat1-luciferase
# Procedure: HepG2 cells were prepared from the T-75 flasks and were used to seed the 24-well plates with 7.6×10^4 cells per well per 0.5 ml of DMEM+10% FBS. The next day, Stat1-lucuferase transfections were set up with Fugene6 according to the manufacturer's directions. In brief, transfection mixtures were prepared in DMEM in separate tubes from the reporter constructs also in DMEM. The samples incubated for 5 minutes at room temperature. Then, the constructs were mixed with the Fugene6 and incubated again for 30 minutes at room temperature. Then 50 μl transfection mix was added to each well in the existing media. Cells were allowed to incubate over night. In selected experiments, cells were treated with 100 uM H2O2 as well as with siPRDX1. After treatment, cells were lysed with the Promega lysis buffer. The wells were scraped and lysates were transferred into pre-chilled tubes and the lysates were cleared via centrifugation. 20 μl of cleared lysate was added to wells in 96 well clear plates and 100 μl of luciferase assay buffer was added to wells. Relative light units were counted using the PerkinElmer Envision.
# HepG2 were transiently transfected with a Stat1-luciferase reporter construct and subject to treatment with either H2O2 or siPeroxiredoxin 1. Bars show the mean±SD. Asterisks indicate statistical difference from the Mock group with significance values of p<0.05. […]
# Peroxiredoxin = Peroxiredoxin activity assay (NADPH oxidation coupled to H2O2 reduction); type: biochemical; conditions: addition to liver cells (FIG. 3); assay method states 500 nM compound A
# Procedure: An in vitro assay was developed to identify compounds that activated Peroxiredoxin (Peroxiredoxin inducers). In a 96-well plate, Peroxiredoxin (0.1 μg) was incubated with 5 μM of an unknown candidate compound and mixed with Hepes buffer containing NADPH, thioredoxin, thioredoxin reductase and hydrogen peroxide. When hydrogen peroxide was reduced by the activated Peroxiredoxin, the quantitative indicator, NADPH was converted to NADP. A decrease in NADPH was monitored by determining the absorption at […]. A decrease in NADPH was therefore, indicative of a Peroxiredoxin inducer.
# Peroxiredoxin-mediated reduction of H2O2 was coupled to oxidation of NADPH oxidation. NADPH oxidation was monitored as a decrease in absorbance at 340 nm (A340). The control reaction contained 50 mM Hepes-NaOH (pH 7.0), 1 mM EDTA, 2 μM thioredoxin, 150 nM thioredoxin reductase, H2O2 (8.8 mM), NADPH ([…]), and Peroxiredoxin (1 μM). The treatment group in addition contained 500 nM of compound A. The reaction was incubated for 30 seconds to 10 minutes and the change in absorbance was monitored.
# VCAM-1 = VCAM-1 ELISA in TNFα-induced endothelial cells; type: cell-based; conditions: Homo sapiens, Endothelial cell, 0.5 ng/ml TNFα, overnight, read-out: inhibition of VCAM-1 levels
# Procedure: Endothelial cell surface VCAM-1 was measured following compound A treatments. The cell layer was washed once with PBS and fixed with methanol. After fixing the cells, VCAM-1 expression was detected with the primary VCAM-1 antibody (goat-anti-Human VCAM-1 antibody—catalog# BBA19, R&D Systems) and secondary anti-goat antibody conjugated to horse radish peroxidase. Colorimetric measurements with made with the Multiskan Ascent plate reader.
# (§1) TNF-alpha (TNFα) (R&D Systems, Minneapolis, Minn., Catalogue No. 210-TA-010) is a pro-inflammatory cytokine implicated in the development of cardiovascular disease. Inflammatory markers produced in response to TNFα include monocyte chemoattractant protein—MCP-1, and vascular cell adhesion molecule—VCAM-1. Endothelial cells are known to produce these markers in response TNFα. To determine whether compound mediating the activation of Peroxiredoxin will result in decreased inflammation, MCP-1 and VCAM-1 levels were measured in TNFα-induced endothelial cells. Cells were stimulated with 0.5 ng/ml of TNFα with or without compound A in basal media supplemented with 1% FBS. Each treatment condition was done in triplicate. […] After fixing the cells, VCAM-1 expression was detected with the primary and secondary antibodies. Colorimetric measurements with made with the Multiskan Ascent plate reader.
# MCP-1 = MCP-1 ELISA in TNFα-induced endothelial cells; type: cell-based; conditions: Homo sapiens, Endothelial cell, 0.5 ng/ml TNFα, overnight, read-out: inhibition of MCP-1 levels
# Procedure: MCP-1 ELISA is carried out using Quantikine Human MCP-1 kit as described by manufacturer (R&D Systems, Minneapolis, Minn., Catalog #DY279E). Mouse anti-human MCP-1 was used as the capture antibody and HRP-conjugated goat anti-human MCP-1 (Zymed (now part of Invitrogen) catalog #81-1620, Carlsbad, Calif.) was used as the detection antibody. Culture media were incubated with capture antibody (in 96 well) for 2 hours at room temperature. Wells were washed three times with wash buffer (0.05% tween-20 in phosphate buffered saline (PBS) pH 7.4) followed by incubation with detection antibody for 2 hours at room temperature. Color development was read at 450 nm in a Microplate reader.
# as §1, with “Endothelial cells are known to produce these markers in response TNFα.” left out, “cells.” for “cells. Cells were stimulated with 0.5 ng/ml of TNFα with or without compound A in basal media supplemented with 1% FBS. Each treatment condition was done in triplicate.”
# [3] = test system: apolipoprotein E-null mice; experiment: Hyperlipidemia model, apolipoprotein E-null mice; type: in vivo; conditions: 100 mg/kg oral once a day, 14 days, plasma, vs vehicle
# Procedure: Second, 8 week old apolipoprotein E-null mice were fed with normal chow diet and once a day orally dosed with carboxymethyl cellulose suspension alone or Compound A at 100 mg/kg (in carboxymethyl cellulose suspension) for 14 days. At the end of the study, plasma levels of cholesterol and triglycerides were determined.
# TNF-α = experiment: LPS-induced acute inflammation in rats, serum TNF-α ELISA; type: in vivo, Sprague Dawley rats; conditions: 60 mg/kg oral, LPS 1 mg/kg i.p., serum 1 hour after LPS
# Procedure: The compound A was orally administrated (60 mg/kg) to female Sprague Dawley rats followed by intraperitoneal administration lipopolysaccharide (LPS−1 mg/kg). Blood samples were collected 1 hour after LPS administration. TNF-α level in the serum was analyzed by using ELISA.
# [4] = test system: Human Aortic Smooth Muscle cells; experiment: Cellular peroxide levels (Amplex Red Kit); type: cell-based; conditions: 3 uM compound, 30 min pre-incubation then 1 hour in growth media, cell lysates
# Procedure: H2O2 levels in human aortic smooth muscle cells (Rockland, Me. Clonetics, catalog #CC-2535) were measured using Amplex Red Kit (Molecular Probes). Smooth muscle cells were cultured in Clonetics growth media containing 5% fetal bovine serum. Cells at 70 percent confluence were starved overnight in serum free media and incubated for further 30 min in serum free media alone (control) or medium containing […] compound A (treatment) for 30 minutes. Growth media containing serum was then added and incubated for one hour. The cells were then lysed and H2O2 was assayed in lysates using Amplex Red Kit (Molecular Probes).
# To establish that compound mediated activation of Peroxiredoxin will result in decreased H2O2, H2O2 levels were measured in untreated (control) and compound A treated smooth muscle cells (See FIG. 16). Human Aortic Smooth Muscle cells at 70 percent confluence were starved overnight in basal media and incubated for further 30 min in basal medium alone (control) or medium containing 3 uM compound (treatment) for 30 minutes. Growth media was then added to the control sample and growth media plus compound was added to the treatment group and incubated for one hour. The cells were then lysed and H2O2 was assayed in lysates using Amplex Red Kit (Molecular Probes).
# LDL-receptor null mice = experiment: Hyperlipidemia model, LDL-receptor null mice on cholesterol diet; type: in vivo; conditions: 100 mg/kg oral once a day, 15 days, plasma, vs vehicle
# Procedure: First, 14 week old LDL-receptor null mice were fed with a diet containing 0.8% cholesterol, 0.1% cholic acid and 20% coconut oil and once a day orally dosed with carboxymethyl cellulose suspension alone Compound A at 100 mg/kg (in carboxymethyl cellulose suspension) for 15 days. At the end of the study, plasma levels of cholesterol and triglycerides were determined using an enzymatic method (INFINITY™ Sigma Diagnostics).
# [5] = in vivo; cited from earlier work
smiles,measurement,setting,value
"OO [Compound H2O2, hydrogen peroxide]",LDL uptake by liver cells,HepG2 cells [1],significantly decreased
same,LDLr mRNA levels,HepG2 cells [2],did not have a significant effect
same,perlecan expression levels,HepG2 cells [2],significantly reduced
same,Stat1 driven luciferase expression,Stat1,significantly enhanced
COc1ccc(Nc2nc(NC3CCCCCC3)nc(N3CCC(OC(=O)CCC(=O)O)CC3)n2)cc1Cl [Compound A],increase in Peroxiredoxin activity over controls,Peroxiredoxin,48%
same,inhibition at 2.5 µM,VCAM-1,75%
same,inhibition at 2.5 µM,MCP-1,75%
same,total triglycerides,[3],reduction
same,inhibition of LPS-induced TNFα elevation,TNF-α,completely inhibited
same,serum TNFα level,TNF-α,undetectable
same,decrease in H2O2 levels vs untreated control,[4],approximately 77%
same,LDL cholesterol,LDL-receptor null mice,reduction
same,VLDL cholesterol,LDL-receptor null mice,reduction
same,total cholesterol,LDL-receptor null mice,reduction
same,triglycerides,LDL-receptor null mice,reduction
O=C1[C@H](CC[C@H](O)c2ccc(F)cc2)[C@@H](c2ccc(O)cc2)N1c1ccc(F)cc1 [Ezetimibe],cholesterol lowering,[5],15-18%
